The nature of data set [1]: 4-week toxicity study in rats. It counts as in vivo. How it is done: (§1) Rapamycin or derivatives thereof are well tolerated at dosages required for use in accordance with the present invention. For example, the NTEL for Compound A in a 4-week toxicity study is 0.5 mg/kg/day in rats and 1.5 mg/kg/day in monkeys.
Data set [2] in a line: 4-week toxicity study in monkeys. It counts as in vivo. The method, then:
as §1

Each structure is given as a SMILES string.

On to `CO[C@H]1C[C@@H]2CC[C@@H](C)[C@@](O)(O2)C(=O)C(=O)N2CCCC[C@H]2C(=O)O[C@H]([C@H](C)C[C@@H]2CC[C@@H](OCCO)[C@H](OC)C2)CC(=O)[C@H](C)/C=C(\C)[C@@H](O)[C@@H](OC)C(=O)[C@H](C)C[C@H](C)/C=C/C=C/C=C/1C` [Compound A, 40-0-(2-hydroxyethyl)-rapamycin], for which the NTEL came to 0.5 mg/kg/day in data set [1] and 1.5 mg/kg/day in data set [2].

(Values after patent publication US20080280939A1, “Combination of Organic Compounds” (priority 2004, published 2008).)
